Among the data in the PolyMetriX glass transition set are glass transition temperature values, retold here.

Molecule `*/C(C#N)=C/c1cc(/C=C(\C#N)c2ccc3c(c2)C(CCCCCCCC)(CCCCCCCC)c2cc(*)ccc2-3)cc(N(c2ccccc2)c2ccccc2)c1` (repeat unit) registered a glass transition temperature of 136.00 °C.

Consider `*=NP(=NP(=NC(=*)Oc1ccc(C(F)(F)F)cc1)(Oc1ccc(C(F)(F)F)cc1)Oc1ccc(C(F)(F)F)cc1)(Oc1ccc(C(F)(F)F)cc1)Oc1ccc(C(F)(F)F)cc1` (repeat unit), for which the glass transition temperature was 31.00 °C.

`*=NP(=NP(=NC(=*)Oc1ccc(OC)cc1)(Oc1ccc(OC)cc1)Oc1ccc(OC)cc1)(Oc1ccc(OC)cc1)Oc1ccc(OC)cc1` (repeat unit): the glass transition temperature came to 37.00 °C.

For the molecule `*CC(*)(C#N)C(=O)OCCCCCCC` (repeat unit), the glass transition temperature is 102.00 °C.

Molecule `*CC(*)(C)C(=O)NC(=O)OC(C)COc1ccc(S(=O)(=O)c2ccc(OCC(C)O)cc2)cc1` (repeat unit) returned a glass transition temperature of 73.00 °C.

`*CC(*)(C)C(=O)NC(C)c1cccc2ccccc12` (repeat unit) yielded a glass transition temperature of 171.00 °C.

For the molecule `*CC(*)(C)C(=O)NC(C)c1ccccc1` (repeat unit), the glass transition temperature came out at 156.50 °C.

In the case of `*CC(*)(C)C(=O)O` (repeat unit), the glass transition temperature is 161.70 °C.

As for `*CC(*)(C)C(=O)OC(C(F)(F)F)C(F)(F)F` (repeat unit), the glass transition temperature was found to be 75.00 °C.

`*CC(*)(C)C(=O)OC12CC3CC(CC(C3)C1)C2` (repeat unit): the glass transition temperature was found to be 183.00 °C.

On to `*CC(*)(C)C(=O)OC1CC(C)CC(C)(C)C1` (repeat unit), for which the glass transition temperature turned out to be 125.00 °C.

`*CC(*)(C)C(=O)OC1CC2CCC1(C)C2(C)C` (repeat unit) came in with a glass transition temperature of 180.50 °C.

With `*CC(*)(C)C(=O)OC1CCC2CCCCC2C1` (repeat unit), the glass transition temperature came to 145.00 °C.

With `*CC(*)(C)C(=O)OC1CCCC(C)C1` (repeat unit), the glass transition temperature came to 89.00 °C.

In turn, `*CC(*)(C)C(=O)OCC(=O)Nc1cc(C)on1` (repeat unit) showed a glass transition temperature of 128.00 °C.

`*CC(*)(C)C(=O)OCC(C)(C)C1OCC(C)(C)CO1` (repeat unit) yielded a glass transition temperature of 118.00 °C.

The molecule `*CC(*)(C)C(=O)OCC(C)Oc1ccc(-c2ccc(-c3ccc(C#N)cc3)cc2)cc1` (repeat unit) returned a glass transition temperature of 140.00 °C.

Consider `*CC(*)(C)C(=O)OCC1(C)COCOC1` (repeat unit), for which the glass transition temperature turned out to be 142.00 °C.

`*CC(*)(C)C(=O)OCC1CC(NC(=O)C2CC(NC(=O)OC(C)(C)C)CN2C(=O)OC(C)(C)C)CN1C(=O)C1CC(NC(=O)OC(C)(C)C)CN1C(=O)OC(C)(C)C` (repeat unit) showed a glass transition temperature of 200.00 °C.

`*CC(*)(C)C(=O)OCC1CCC1` (repeat unit): the glass transition temperature came to 114.00 °C.

As for `*CC(*)(C)C(=O)OCC1COC(CP(=O)(OCC)OCC)O1` (repeat unit), the glass transition temperature stood at 115.00 °C.

In the case of `*CC(*)(C)C(=O)OCC1COCCOCCOCCO1` (repeat unit), the glass transition temperature was 35.00 °C.

Regarding `*CC(*)(C)C(=O)OCC1OC(n2ccc(=O)[nH]c2=O)C(O)C1O` (repeat unit), the glass transition temperature was 143.50 °C.

The molecule `*CC(*)(C)C(=O)OCC=C` (repeat unit) gave a glass transition temperature of 94.00 °C.

For `*CC(*)(C)C(=O)OCCBr` (repeat unit), the glass transition temperature came to 52.00 °C.

`*CC(*)(C)C(=O)OCCC#N` (repeat unit) had a glass transition temperature of 91.00 °C.

In the case of `*CC(*)(C)C(=O)OCCC(C)CC(C)(C)C` (repeat unit), the glass transition temperature is 1.00 °C.

As to `*CC(*)(C)C(=O)OCCC1CCCCC1` (repeat unit), the glass transition temperature was found to be 110.00 °C.

`*CC(*)(C)C(=O)OCCCCC(F)(F)C(F)(F)C(F)(F)C(F)(F)F` (repeat unit) showed a glass transition temperature of 23.00 °C.

`*CC(*)(C)C(=O)OCCCCCC(=O)Oc1ccc(OC(=O)c2ccc(OCCCCC)cc2)cc1` (repeat unit): the glass transition temperature came to 50.00 °C.

`*CC(*)(C)C(=O)OCCCCCC(=O)Oc1ccc(OC(=O)c2ccc(OCCCCCC)cc2)cc1` (repeat unit) yielded a glass transition temperature of 44.00 °C.

`*CC(*)(C)C(=O)OCCCCCCC(F)(F)C(F)(F)C(F)(F)C(F)(F)C(F)(F)C(F)(F)C(F)(F)C(F)(F)C(F)(F)C(F)(F)C(F)(F)C(F)(F)F` (repeat unit): the glass transition temperature is 84.00 °C.

`*CC(*)(C)C(=O)OCCCCCCCC/C=C/CCCCCCCC` (repeat unit) came in with a glass transition temperature of -40.00 °C.

Molecule `*CC(*)(C)C(=O)OCCCCCCCCCCCCCC` (repeat unit) registered a glass transition temperature of -72.00 °C.

The molecule `*CC(*)(C)C(=O)OCCCCCCCCCCCCOc1ccc2cc(C(=O)Oc3ccccc3)ccc2c1` (repeat unit) registered a glass transition temperature of 12.00 °C.

On to `*CC(*)(C)C(=O)OCCCCCCCCCCCOc1ccc(/N=N/c2ccc(OC(=O)c3ccc4c(c3)OCCOCCOCCOCCO4)cc2)cc1` (repeat unit), for which the glass transition temperature was 59.00 °C.

For `*CC(*)(C)C(=O)OCCCCCCCCCCOc1ccc(/N=N/c2ccc(C3OCC4(CO3)CC3C=CC4C3)cc2)cc1` (repeat unit), the glass transition temperature came out at 103.20 °C.

The molecule `*CC(*)(C)C(=O)OCCCCCCCCCCOc1ccc(/N=N/c2ccccc2)cc1` (repeat unit) returned a glass transition temperature of 56.00 °C.

The molecule `*CC(C)(C)C1C(=O)N(CCCC)C(=O)C1*` (repeat unit) returned a glass transition temperature of 80.00 °C.

`*CC(C)(C)O*` (repeat unit) showed a glass transition temperature of 40.50 °C.

Consider `*CC(C)(C)S*` (repeat unit), for which the glass transition temperature is -14.00 °C.

For `*CC(CC(*)(C#N)C#N)c1ccc(CCl)cc1` (repeat unit), the glass transition temperature was determined as 180.00 °C.

`*CC(CC(*)(C#N)C#N)c1ccc(Cl)cc1` (repeat unit) had a glass transition temperature of 180.00 °C.

With `*CC(CCCCCCCCCC)O*` (repeat unit), the glass transition temperature was -41.00 °C.

On to `*CC(CN1C(=O)C2C3C=CC(C3)C2C1=O)O*` (repeat unit), for which the glass transition temperature was 87.50 °C.

For `*CC(COC(C)C)O*` (repeat unit), the glass transition temperature was -67.00 °C.

`*CC(COCC=C)S*` (repeat unit) registered a glass transition temperature of -59.00 °C.

In the case of `*CC(COCCCCCC)O*` (repeat unit), the glass transition temperature is -85.50 °C.

In turn, `*CC(COCCOCCOC)O*` (repeat unit) had a glass transition temperature of -57.00 °C.

`*CC(COCOCC(C)([N+](=O)[O-])[N+](=O)[O-])O*` (repeat unit) returned a glass transition temperature of -15.00 °C.

For the molecule `*CC(CS(=O)(=O)CC)O*` (repeat unit), the glass transition temperature was determined as 57.00 °C.

In the case of `*CC(CS(=O)(=O)CCC)O*` (repeat unit), the glass transition temperature turned out to be 43.00 °C.

The molecule `*CC(CSCCCC)O*` (repeat unit) showed a glass transition temperature of -65.00 °C.

On to `*CC(CSCCCCC)O*` (repeat unit), for which the glass transition temperature is -68.00 °C.

`*CC(F)(F)C1(F)CC(C(O)(C(F)(F)F)C(F)(F)F)CC1*` (repeat unit) had a glass transition temperature of 118.00 °C.

Consider `*CC(O)CN(*)c1cc(C)c(/N=N/c2ccc([N+](=O)[O-])cc2C)c(C)c1` (repeat unit), for which the glass transition temperature came out at 149.00 °C.

For `*CC(O)CN(*)c1cc(C)cc(C)c1` (repeat unit), the glass transition temperature was 80.00 °C.

Regarding `*CC(O)CN(*)c1ccc(/N=N/c2ccc([N+](=O)[O-])cc2C)cc1` (repeat unit), the glass transition temperature amounted to 156.00 °C.

`*CC(O)CN(C)S(=O)(=O)c1cccc(S(=O)(=O)N(C)CC(O)COc2ccc(C(C)(C)c3ccc(O*)cc3)cc2)c1` (repeat unit) came in with a glass transition temperature of 76.00 °C.

In the case of `*CC(O)CN(C)S(=O)(=O)c1cccc(S(=O)(=O)N(C)CC(O)COc2ccc(S(=O)(=O)c3ccc(O*)cc3)cc2)c1` (repeat unit), the glass transition temperature is 100.00 °C.

Regarding `*CC(O)CN(C)S(=O)(=O)c1cccc(S(=O)(=O)N(C)CC(O)COc2ccc(Sc3ccc(O*)cc3)cc2)c1` (repeat unit), the glass transition temperature came out at 90.00 °C.

In turn, `*CC(O)COc1ccc(C(C)CC(C)(C)c2ccc(O*)cc2)cc1` (repeat unit) gave a glass transition temperature of 75.00 °C.

In the case of `*CC(OC)C(C(=O)O)C(*)C(=O)O` (repeat unit), the glass transition temperature is 144.00 °C.

With `*CC(OC)C(C(=O)OC)C(*)C(=O)OC` (repeat unit), the glass transition temperature was found to be 59.50 °C.

Turning to `*CC(OCC)C(C(=O)OC)C(*)C(=O)OC` (repeat unit), the glass transition temperature was found to be 50.00 °C.

In turn, `*CC(OCC)C(C)(C(=O)OC)C(*)(C)C(=O)OC` (repeat unit) displayed a glass transition temperature of 131.00 °C.

`*CCCCCCCCCCCCCCCCCCCCOC(=O)CC(=O)O*` (repeat unit): the glass transition temperature was -35.10 °C.

Regarding `*CCCCCCCCCCN/C(=N/*)c1ccccc1` (repeat unit), the glass transition temperature was found to be 10.00 °C.

With `*CCCCCCCCCn1c2ccccc2c2cc(/C=C(\C#N)C(=O)OCCCCCCOC(=O)/C(C#N)=C/c3ccc4c(c3)c3ccccc3n4*)ccc21` (repeat unit), the glass transition temperature amounted to 96.40 °C.

Molecule `*CCOC(=O)CC(C)O*` (repeat unit) registered a glass transition temperature of -37.10 °C.

Take `*Cc1ccc(CNC(=O)CC(C)(C)CC(C)C(=O)N*)cc1` (repeat unit): the glass transition temperature was found to be 125.00 °C.

Take `*N=P(N=P(/N=S(/*)Oc1ccc(-c2ccccc2)cc1)(Oc1ccc(-c2ccccc2)cc1)Oc1ccc(-c2ccccc2)cc1)(Oc1ccc(-c2ccccc2)cc1)Oc1ccc(-c2ccccc2)cc1` (repeat unit): the glass transition temperature was 69.00 °C.

In turn, `*N=P(N=P(N=S(*)(=O)NC)(NC)NC)(NC)NC` (repeat unit) registered a glass transition temperature of 22.00 °C.

For the molecule `*OC(CC(*)=O)C(Cl)(Cl)Cl` (repeat unit), the glass transition temperature was 163.50 °C.

`*OC(CCc1ccccc1)CC(*)=O` (repeat unit) showed a glass transition temperature of 18.00 °C.
